Experimental data from patent publication US9422240B2, “Partially saturated nitrogen-containing heterocyclic compound” (TAISHO PHARMACEUTICAL CO., LTD, priority 2012, dated 2016).

Tests used:
human PHD2 [1] = molecular target: T1, human PHD2 (Homo sapiens (Human), UniProt Q9GZT9); assay: Test 2: human PHD2 inhibitory activity, fluorescence polarization assay of HIF-1α peptide proline hydroxylation; assay type: biochemical; settings: test compound's concentration 1 μM; Test 2, fluorescence polarization assay; read-out: Percent inhibition (% at 1 μM)
Method in brief: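 Enzyme from lysate of cells expressing human PHD2 (NM_022051), 40 ng/well, added to compound and 19-residue HIF-1α peptide substrate; 20 min at 30° C., EDTA quench. Prolyl hydroxylation detected by HIF-OH antibody binding via fluorescence polarization; inhibition relative to compound-free wells.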

human PHD2 [2] = molecular target: T1, human PHD2; assay: Test 1: human PHD2 inhibitory activity, [14C]-2-oxoglutarate to [14C]-succinic acid radiometric assay with HIF-1α peptide; assay type: biochemical; settings: test compound's concentration 1 μM; Test 1, [14C]-2-oxoglutarate radiometric assay; read-out: Percent inhibition (% at 1 μM)
Method in brief: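 Lysate from HighFive insect cells expressing human PHD2 (4 μg/well) was incubated for 15 min at 37° C with a 19-residue HIF-1α peptide and [14C]-2-oxoglutarate. Unreacted 2-oxoglutarate was precipitated with DNPH and filtered off, and [14C]-succinic acid was counted. Inhibition was calculated relative to substrate-free and compound-free controls.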

T1 sequence (Q9GZT9 whole entry): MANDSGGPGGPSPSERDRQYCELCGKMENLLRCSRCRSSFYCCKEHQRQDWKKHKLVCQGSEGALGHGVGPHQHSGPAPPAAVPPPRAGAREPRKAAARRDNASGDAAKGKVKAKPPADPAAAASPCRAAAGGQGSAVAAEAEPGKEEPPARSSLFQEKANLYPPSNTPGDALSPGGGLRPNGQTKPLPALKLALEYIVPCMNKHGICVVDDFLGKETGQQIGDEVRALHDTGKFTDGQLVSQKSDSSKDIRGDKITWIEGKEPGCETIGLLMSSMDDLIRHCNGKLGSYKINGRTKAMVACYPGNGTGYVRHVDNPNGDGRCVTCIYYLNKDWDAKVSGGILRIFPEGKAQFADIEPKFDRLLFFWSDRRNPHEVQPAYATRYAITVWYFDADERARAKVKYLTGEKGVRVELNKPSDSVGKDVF

SMILES	inhibition at 1 µM (human PHD2 [1])	inhibition at 1 µM (human PHD2 [2])
O=C(O)CNC(=O)C1=C(O)CC2(CCC2)N(CC2CCC(c3ccccc3)CC2)C1=O (stereo not drawn) [Ex. 1-137]	92%	78%
CC(C)(C)c1ccc(-c2ccc(CN3C(=O)C(C(=O)NCC(=O)O)=C(O)CC34COC4)cc2)cc1 [Ex. 1-138]	97%	83%
O=C(O)CNC(=O)C1=C(O)CCN(Cc2ccc(F)cc2)C1=O [Ex. 1-139]	78%	72%
O=C(O)CNC(=O)C1=C(O)CCN(Cc2ccc(C(F)(F)C(F)(F)F)cc2)C1=O [Ex. 1-140]	85%	79%
O=C(O)CNC(=O)C1=C(O)CC2(CCCCC2)N(Cc2ccc(C(F)(F)F)nc2)C1=O [Ex. 1-141]	62%	64%
O=C(O)CNC(=O)C1=C(O)CC2(CCCCC2)N(Cc2ccc(C(F)(F)F)cn2)C1=O [Ex. 1-142]	52%	54%
O=C(O)CNC(=O)C1=C(O)C2CCCCC2N(Cc2ccc(C(F)(F)F)cc2)C1=O (stereo not drawn) [Ex. 1-143]	65%	41%
CC1CN(Cc2ccc(Br)cc2)C(=O)C(C(=O)NCC(=O)O)=C1O (stereo not drawn) [Ex. 1-144]	85%	76%
O=C(O)CNC(=O)C1=C(O)CCN(Cc2ccc(Br)cc2F)C1=O [Ex. 1-145]	83%	88%
CC(c1ccc(C(F)(F)F)cc1)N1CCC(O)=C(C(=O)NCC(=O)O)C1=O (stereo not drawn) [Ex. 1-146]	70%	69%
O=C(O)CNC(=O)C1=C(O)C2(CC2)CN(Cc2ccc(C(F)(F)F)cc2)C1=O [Ex. 1-147]	88%	84%
CC1CC(O)=C(C(=O)NCC(=O)O)C(=O)N1Cc1ccc(Br)cc1 (stereo not drawn) [Ex. 1-148]	82%	78%
CC1CC(O)=C(C(=O)NCC(=O)O)C(=O)N1Cc1ccc(OC(F)(F)F)cc1 (stereo not drawn) [Ex. 1-149]	74%	74%
CC1(C)CC(O)=C(C(=O)NCC(=O)O)C(=O)N1Cc1ccc(Br)cc1 [Ex. 1-150]	71%	63%
CC1(C)CC(O)=C(C(=O)NCC(=O)O)C(=O)N1Cc1ccc(OC(F)(F)F)cc1 [Ex. 1-151]	63%	57%
O=C(O)CNC(=O)C1=C(O)CCN(Cc2ccc3c(c2)OC(F)(F)O3)C1=O [Ex. 1-152]	83%	82%
CCC(c1ccc(C(F)(F)F)cc1)N1CCC(O)=C(C(=O)NCC(=O)O)C1=O (stereo not drawn) [Ex. 1-153]	63%	64%
O=C(O)CNC(=O)C1=C(O)CC2(CCC2)N(Cc2ccc(OC(F)(F)F)cc2)C1=O [Ex. 1-154]	81%	77%
O=C(O)CNC(=O)C1=C(O)CC2(CCC2)N(Cc2ccc(Br)cc2)C1=O [Ex. 1-155]	83%	82%
O=C(O)CNC(=O)C1=C(O)CC2(CCCC2)N(Cc2ccc(C(F)(F)F)cc2)C1=O [Ex. 1-156]	80%	70%

SMILES	inhibition at 1 µM (human PHD2 [1])	inhibition at 1 µM (human PHD2 [2])
CC1(C)CC(O)=C(C(=O)NCC(=O)O)C(=O)N1Cc1ccc(Cl)cc1 [Ex. 1-157]	73%	67%
CC1(C)CC(O)=C(C(=O)NCC(=O)O)C(=O)N1Cc1ccc(Cl)c(Cl)c1 [Ex. 1-158]	75%	67%
O=C(O)CNC(=O)C1=C(O)CCN(Cc2ccc(OC(F)(F)F)c(Cl)c2)C1=O [Ex. 1-159]	90%	78%
O=C(O)CNC(=O)C1=C(O)CCN(Cc2ccc(Cl)c(OC(F)(F)F)c2)C1=O [Ex. 1-160]	85%	74%
CC1(C)CC(O)=C(C(=O)NCC(=O)O)C(=O)N1Cc1ccc(OC(F)F)cc1 [Ex. 1-161]	62%	62%
CC1CN(Cc2ccc(Cl)cc2)C(=O)C(C(=O)NCC(=O)O)=C1O (stereo not drawn) [Ex. 1-162]	77%	78%
CC1CN(Cc2ccc(Cl)c(Cl)c2)C(=O)C(C(=O)NCC(=O)O)=C1O (stereo not drawn) [Ex. 1-163]	90%	84%
CC1(C)CC(O)=C(C(=O)NCC(=O)O)C(=O)N1Cc1ccc(OC(F)(F)F)c(Cl)c1 [Ex. 1-164]	66%	49%
CC1(C)CC(O)=C(C(=O)NCC(=O)O)C(=O)N1Cc1ccc(Cl)c(OC(F)(F)F)c1 [Ex. 1-165]	55%	42%
O=C(O)CNC(=O)C1=C(O)CC2(CCC2)N(Cc2ccc(Cl)cc2)C1=O [Ex. 1-166]	86%	82%
O=C(O)CNC(=O)C1=C(O)CC2(CCC2)N(Cc2ccc(Cl)c(Cl)c2)C1=O [Ex. 1-167]	88%	80%
COc1ccc(CN2C(=O)C(C(=O)NCC(=O)O)=C(O)CC2(C)C)cc1OC(F)(F)F [Ex. 1-169]	43%	28%
Cc1cc(CN2C(=O)C(C(=O)NCC(=O)O)=C(O)CC2(C)C)cc(C)c1OC(F)F [Ex. 1-170]	45%	35%
CC1CC(O)=C(C(=O)NCC(=O)O)C(=O)N1Cc1ccc(Cl)cc1 (stereo not drawn) [Ex. 1-171]	82%	81%
CC1CC(O)=C(C(=O)NCC(=O)O)C(=O)N1Cc1ccc(Cl)c(Cl)c1 (stereo not drawn) [Ex. 1-172]	79%	77%
O=C(O)CNC(=O)C1=C(O)CCN(CCc2cccc(C(F)(F)F)c2)C1=O [Ex. 1-173]	78%	64%
CC1(C)CN(Cc2ccc(C(F)(F)F)cc2)C(=O)C(C(=O)NCC(=O)O)=C1O [Ex. 1-174]	74%	59%
CC1(C)C(O)=C(C(=O)NCC(=O)O)C(=O)N(Cc2ccc(C(F)(F)F)cc2)C1(C)C [Ex. 1-175]	56%	32%
O=C(O)CNC(=O)C1=C(O)CCN(CCc2ccc(C(F)(F)F)cc2)C1=O [Ex. 1-176]	80%	74%

The remaining lines, values ahead:

inhibition at 1 µM (human PHD2 [1])	inhibition at 1 µM (human PHD2 [2])	SMILES
92%	93%	CC1CC(O)=C(C(=O)NCC(=O)O)C(=O)N1Cc1ccc(-c2ccc(F)cc2)cc1 (stereo not drawn) [Ex. 1-177]
92%	81%	O=C(O)CNC(=O)C1=C(O)CC2(CCC2)N(Cc2ccc(-c3ccc(F)cc3)cc2)C1=O [Ex. 1-178]
49%	44%	Cc1cc(CN2C(=O)C(C(=O)NCC(=O)O)=C(O)CC2(C)C)ccc1F [Ex. 1-179]
65%	54%	Cc1cc(CN2C(=O)C(C(=O)NCC(=O)O)=C(O)CC2(C)C)ccc1Cl [Ex. 1-180]
83%	73%	O=C(O)CNC(=O)C1=C(O)CC(Cc2ccccc2)N(Cc2ccc(C(F)(F)F)cc2)C1=O (stereo not drawn) [Ex. 1-181]
71%	77%	CCC1CC(O)=C(C(=O)NCC(=O)O)C(=O)N1Cc1ccc(C(F)(F)F)cc1 (stereo not drawn) [Ex. 1-182]
50%	39%	CCC1(CC)CC(O)=C(C(=O)NCC(=O)O)C(=O)N1Cc1ccc(C(F)(F)F)cc1 [Ex. 1-183]
60%	59%	Cc1ccc(CN2C(=O)C(C(=O)NCC(=O)O)=C(O)CC2(C)C)cc1F [Ex. 1-184]
81%	69%	O=C(O)CNC(=O)C1=C(O)CC(CCc2ccccc2)N(Cc2ccc(C(F)(F)F)cc2)C1=O (stereo not drawn) [Ex. 1-185]
77%	64%	CC1(C)CC(O)=C(C(=O)NCC(=O)O)C(=O)N1Cc1ccc(OCCCC(F)(F)F)cc1 [Ex. 1-186]
74%	47%	Cc1cc(CN2C(=O)C(C(=O)NCC(=O)O)=C(O)CC2(C)C)ccc1OCCCC(F)(F)F [Ex. 1-187]
63%	44%	CC1(C)CC(O)=C(C(=O)NCC(=O)O)C(=O)N1Cc1ccc(OC(CF)CF)c(Cl)c1 [Ex. 1-188]
60%	53%	Cc1cc(CN2C(=O)C(C(=O)NCC(=O)O)=C(O)CC2(C)C)ccc1OC(CF)CF [Ex. 1-189]
85%	84%	O=C(O)CNC(=O)C1=C(O)CCN(Cc2ccc(C(F)(F)F)c(C3CC3)c2)C1=O [Ex. 1-190]
45%	38%	COc1cc(CN2C(=O)C(C(=O)NCC(=O)O)=C(O)CC2(C)C)ccc1C(F)(F)F [Ex. 1-191]
49%	48%	CC1(C)CC(O)=C(C(=O)NCC(=O)O)C(=O)N1Cc1ccc(C(F)(F)F)c(OC(F)F)c1 [Ex. 1-192]
57%	67%	COc1ccc(CN2C(=O)C(C(=O)NCC(=O)O)=C(O)CC2(C)C)c(F)c1 [Ex. 1-193]
57%	54%	COc1ccc(CN2C(=O)C(C(=O)NCC(=O)O)=C(O)CC2(C)C)cc1F [Ex. 1-194]
57%	52%	COc1ccc(CN2C(=O)C(C(=O)NCC(=O)O)=C(O)CC2(C)C)cc1Cl [Ex. 1-195]
48%	41%	COc1ccc(CN2C(=O)C(C(=O)NCC(=O)O)=C(O)CC2(C)C)cc1C [Ex. 1-196]
78%	66%	CC(C)C1CN(Cc2ccc(C(F)(F)F)cc2)C(=O)C(C(=O)NCC(=O)O)=C1O (stereo not drawn) [Ex. 1-197]
